By mortality is commonly meant the share of the test organisms that died. Read a low mortality as more survivors.

Each structure is given as a SMILES string.

This series deals with Blattela germanica. Kind of series: Topical application to adult female Blattela germanica, mortality after 7 days. Type of series: in vivo. Particulars: 1 μl of 20 μg/μl acetone solution applied to ventral thorax of adult female, 10 insects per group, triplicate. As for the experimental part: 1 μl of a 20 μg/μl acetone solutions of each of the present compounds No. 1 and the control compound was applied onto the surface of the ventral region of the thorax of adult female Blattela germanica. These insects were kept with a feed (solid feed for rat, Oriental Yeast, Co., Ltd.) and water for 7 days. Subsequently, the insects were examined for death to obtain mortality (10 insects per group, triplicate).
In a similar manner to the Experiment example 1, using a 20 μg/μl acetone solution of each of the present compounds Nos. 2, 3, 4, 5, 6, 7, 10, 11, 13, 14, 15, 16 and 18 instead of the present compound No. 1 and the control compound, the experiment was carried out to obtain mortality of the cockroach.
In a similar manner to the Experiment example 1, using a 2.5 μg/μl acetone solution of each of the present compounds Nos. 5 and 6 instead of the present compound No. 1 and the control compound, the experiment was carried out to obtain mortality of the cockroach.

Turning to `CCOC(=O)c1c(O)cc(C)oc1=O` [Compound No. 1, ethyl 4-hydroxy-6-methyl-2-oxo-2H-pyrane-3-carboxylate], the mortality is reported as 100%. `CCC(=O)c1c(O)cc(C)oc1=O` [control compound, 4-hydroxy-6-methyl-3-propanoyl-2-pyrone] returned a mortality of 30%.

These data come from US7067523B2, “Use of pyrone carboxylates for controlling pests” (Sumitomo Chemical Company, Limited, priority 2002, dated 2006).
